Series [1] is described as follows: Oral half-life and peak plasma levels. It is filed as in vivo. Particulars: for POt½ in Rat: oral; for Peak Plasma Levels: rat, in vivo. The text has this:
As used herein, bioavailability refers to the rate and extent of absorption. Methods for determining bioavailability are well known to those of skill in the art. For example, bioavailability of any of the compounds described herein can be determined empirically by administration of the compound to an animal, followed by taking blood samples over time and measuring the blood concentration of the compound. In vivo half life (t1/2) is defined as the time it takes for the concentration of the compound in the blood to be reduced by one-half. Estimations of the area under the curve for intravenous administration can be used to estimate the area under the curve for oral administration, ylelding bioavailability data. See, e.g., Milo Gibal (1991) Biopharmaceutics and Pharmacology, 4th edition (Lea and Sediger).
Table 2 lists oral half-life, bioavailability, and in vivo activity of selected exemplary compounds. The in vivo activity was measured in a pulmonary hypertension model and is a measure of the activity of the compounds at selected dosages.

Series [2] has as its system Pulmonary Hypertension model. Description: Pulmonary Hypertension model. It is filed as in vivo, rat. Set-up: key: ++: effective at 5 mg/kg; −: no effect at 5 mg/kg; +: effective at 15 mg/kg. Here is the method:
As used herein, efficacy refers to the maximal effect that can be produced by a compound. Efficacy can be determined by methods known to those of skill in the art. For example, it can be determined by the properties of the compound and its receptor-effector system and is reflected in the plateau of the concentration-effect curve. In vivo efficacy refers to efficacy which is determined in an animal model. For example, in vivo efficacy of the compounds described herein can be determined by hypoxia-induced pulmonary hypertension in rat. See, e.g., DiCarlo et al. (1995) Am. J. Physiol. 269:[…]-[…]. Table 2 lists oral half-life, bioavailability, and in vivo activity of selected exemplary compounds. The in vivo activity was measured in a pulmonary hypertension model and is a measure of the activity of the compounds at selected dosages.

Series [3] concerns the target T1, human ETB receptor (Homo sapiens, UniProt P24530).
T1 construct: expressed in transfected cells; host or cells: COS7 cells
T1 sequence (P24530 27-442): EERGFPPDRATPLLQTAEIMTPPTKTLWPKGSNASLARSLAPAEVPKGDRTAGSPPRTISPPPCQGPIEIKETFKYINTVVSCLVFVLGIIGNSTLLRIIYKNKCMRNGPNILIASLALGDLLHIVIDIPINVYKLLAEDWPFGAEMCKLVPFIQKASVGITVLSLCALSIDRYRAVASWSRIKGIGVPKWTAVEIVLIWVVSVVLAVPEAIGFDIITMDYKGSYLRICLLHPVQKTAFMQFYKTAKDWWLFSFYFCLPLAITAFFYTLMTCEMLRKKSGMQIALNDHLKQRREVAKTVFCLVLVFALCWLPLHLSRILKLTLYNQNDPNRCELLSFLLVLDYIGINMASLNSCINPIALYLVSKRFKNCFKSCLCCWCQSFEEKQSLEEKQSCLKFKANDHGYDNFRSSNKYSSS
In words: Endothelin binding inhibition, Binding Test #2: competition with 125I-ET-1 for ETB receptors on transfected COS7 cell membranes. Particulars: incubation at 24° C. (values marked †). A digest of the protocol: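 Membranes from COS7 cells transfected with human ETB receptor, prepared in HEPES pH 7.4 with aprotinin, MnCl2/DNase treatment at 37° C for 30 min. Test compounds compete with 125I-labeled ET-1 for receptor binding; membrane used at 1 μg/50 μL binding buffer.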

The target of series [4] is T2, human ETA receptors (Homo sapiens, UniProt P25101).
T2 construct: endogenous in cells; host or cells: TE 671 cells (ATCC HTB 139), membrane preparation
T2 sequence (P25101 21-427): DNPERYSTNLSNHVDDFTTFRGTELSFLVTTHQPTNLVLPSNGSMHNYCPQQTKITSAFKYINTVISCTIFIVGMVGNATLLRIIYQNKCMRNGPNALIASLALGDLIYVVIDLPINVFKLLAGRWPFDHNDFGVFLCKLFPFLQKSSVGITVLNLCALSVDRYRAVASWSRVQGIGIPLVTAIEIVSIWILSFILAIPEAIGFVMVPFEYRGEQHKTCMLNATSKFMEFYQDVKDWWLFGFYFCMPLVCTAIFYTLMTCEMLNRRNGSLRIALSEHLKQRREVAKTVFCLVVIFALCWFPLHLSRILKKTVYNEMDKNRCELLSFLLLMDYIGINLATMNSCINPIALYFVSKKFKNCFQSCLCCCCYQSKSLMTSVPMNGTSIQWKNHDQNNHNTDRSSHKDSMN
Description: Endothelin binding inhibition, Binding Test #1: competition with 125I-ET-1 for ETA receptors on TE 671 cell membranes. The conditions noted are these: incubation at 24° C. (values marked †).

Series [5] in a line: Papp. Type of series: in vitro ADME. Particulars: not told.
Series [6] relates to isolated vascular strips. Particulars: contractile agent; cited from earlier work.
The subject of series [7] is ETB receptors. Particulars: at concentrations up to 100 μM; cited from earlier work.
Series [8] concerns the target ETA receptor. Particulars: cited from earlier work.

Like-named read-outs stand apart in the source and are kept apart here.

The IC50 is the point on the concentration scale where inhibition reaches its midpoint. What is called Papp is the rate of passage across a membrane or cell layer, normalised by area and donor concentration. As usually defined, the EC50 is the concentration giving half of the maximal effect. As usually defined, the melting point is the temperature, or range, at which the solid turns liquid.

For the compound `Cc1cc(C)c(NC(=O)c2sccc2S(=O)(=O)Nc2noc(C)c2Cl)c(C)c1CC#N` [N-(4-chloro-5-methyl-3-isoxazolyl)-2-(3-cyanomethyl-2,4,6-trimethylphenylaminocarbonyl)thiophene-3-sulfonamide], in series [1], the “POt½ in Rat” value turned out to be 25.6 h and the “Peak Plasma Levels” value worked out at 13 µg/mL. For the same compound, the “in vivo Efficacy” value in series [2] was “−”. The compound also returned an IC50 in [3] of 7540 nM. The compound further came in with a 50% inhibitory concentration (IC50) in series [4] of 0.88 nM.
For `CC(=O)OCc1c(C)cc(C)c(NC(=O)c2sccc2S(=O)(=O)Nc2onc(C)c2Cl)c1C` [N-(4-chloro-3-methyl-5-isoxazolyl)-2-(3-acetoxymethyl-2,4,6-trimethylphenylaminocarbonyl)thiophene-3-sulfonamide], the Papp in [5] came out at 1.46 ×10⁻⁶ cm/s. Moreover, the IC50 in series [3] came to 730000 nM; in series [4], 0.86 nM.
Taken in the same sequence, the figures for `COC(=O)Cc1c(C)cc(C)c(NC(=O)c2sccc2S(=O)(=O)Nc2onc(C)c2Cl)c1C` [N-(4-chloro-3-methyl-5-isoxazolyl)-2-(3-methoxycarbonylmethyl-2,4,6-trimethylphenylaminocarbonyl)thiophene-3-sulfonamide] were 1.69 ×10⁻⁶ cm/s, 114000 nM and 1 nM.
For `Cc1cc(C)c(NC(=O)c2sccc2S(=O)(=O)Nc2onc(C)c2Cl)c(C)c1C#N` [N-(4-chloro-3-methyl-5-isoxazolyl)-2-(3-cyano-2,4,6-trimethylphenylaminocarbonyl)thiophene-3-sulfonamide], in series [1], the “POt½ in Rat” value is 3.9 h and the “Peak Plasma Levels” value came to 20 µg/mL. In addition, the “in vivo Efficacy” value in series [2] is “++”. Besides, the IC50 in series [3] stood at 57200 nM. Moreover, in series [4], the IC50 is 1.52 nM.
Turning to endothelin-1, the EC50 in series [6] was 0.4 nM.
In the case of “cyclo(D-Glu-L-Ala-allo-D-Ile-L-Leu-D-Trp) [BE-18257B]”, the inhibition of binding result in [7] is recorded as “fails to inhibit binding”. Further, the values for the IC50 in series [8] (aortic smooth muscle), in series [8] (cultured aortic smooth muscle cells) and in series [8] (ventricle membranes) were 1400 nM, 500 nM and 800 nM, respectively.
As for `COc1cc(C#N)c(NC(=O)c2sccc2S(=O)(=O)Nc2onc(C)c2Cl)c(OC)c1OC` [N-(4-chloro-3-methyl-5-isoxazolyl)-2-[(2,3,4-trimethoxy-6-cyano)phenylaminocarbonyl]thiophene-3-sulfonamide], the Papp in series [5] turned out to be 0.58 ×10⁻⁶ cm/s. For the same compound, the results for the half-inhibitory concentration (IC50) in series [3] and in [4] were 7000 nM and 0.24 nM, respectively.
As for `Cc1cc(C)c(NC(=O)c2sccc2S(=O)(=O)Nc2onc(C)c2Cl)c(C)c1CC#N` [N-(4-chloro-3-methyl-5-isoxazolyl)-2-(3-cyanomethyl-2,4,6-trimethylphenylaminocarbonyl)thiophene-3-sulfonamide], in [1], the “POt½ in Rat” value was 3.4 h and the “Peak Plasma Levels” value is 40.2 µg/mL. Also, the “in vivo Efficacy” value in series [2] is reported as “++”. Further, the Papp in series [5] came out at 1.78 ×10⁻⁶ cm/s. The 50% inhibitory concentration (IC50) in series [3] came out at 38800 nM. This compound displayed an IC50 in series [4] of 1.18 nM.
In the case of `Cc1cc2c(cc1CC(=O)c1sccc1S(=O)(=O)Nc1onc(C)c1Cl)OCO2` [N-(4-chloro-3-methyl-5-isoxazolyl)-2-[2-methyl-4,5-(methylenedioxy)phenylacetyl]thiophene-3-sulfonamide], the “POt½ in Rat” value in series [1] came to 4.1 h. In addition, in series [1], the “Peak Plasma Levels” value came to 173 µg/mL. Moreover, the “in vivo Efficacy” value in series [2] was “++”. Moreover, in [5], the apparent permeability coefficient (Papp) was 2.32 ×10⁻⁶ cm/s. Besides, the half-inhibitory concentration (IC50) in series [3] amounted to 52800 nM; in series [4] it was 14.6 nM.
In turn, `Cc1noc(NS(=O)(=O)c2ccsc2C(=O)Nc2c(C)c(C)c(C)c(C)c2C)c1Cl` [N-(4-chloro-3-methyl-5-isoxazolyl)-2-(pentamethylphenylaminocarbonyl)thiophene-3-sulfonamide] registered a melting point of 196 to 198 °C. This compound also yielded an IC50 in series [3] of 31000 nM. Further, the 50% inhibitory concentration (IC50) in [4] turned out to be 29.9 nM.
Take `Cc1cc(C)c(NC(=O)c2sccc2S(=O)(=O)Nc2onc(C)c2Cl)c(C)c1CO` [N-(4-chloro-3-methyl-5-isoxazolyl)-2-(3-hydroxymethyl-2,4,6-trimethylphenylaminocarbonyl)thiophene-3-sulfonamide]: in [1], the “POt½ in Rat” value is 1.5 h and the “Peak Plasma Levels” value stood at 3 µg/mL. In [5], this compound yielded a Papp of 1.56 ×10⁻⁶ cm/s. In addition, in series [3], the IC50 was 74200 nM. For the same compound, in series [4], the IC50 turned out to be 0.67 nM.

Source of the values: patent publication US6632829B2, “Sulfonamides and derivatives thereof that modulate the activity of endothelin” (Texas Biotechnology Corp., priority 1996, dated 2003).
